According to PubChem BioAssay AID1963875 (Molecular Pharmacology Branch, DTP, NCI, 2024):

System: KRAS-mutant PDC complex spheroid viability
Assay: Anticancer human tumor 186277-243-T-J2-PDC patient-derived colon adenocarcinoma cell line growth inhibition [KRAS2]
Settings: for IC50: curve of first compound; for viability, T/C: stronger effect = lower value
Summary of the method: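 KRAS-mutant tumor cells were grown as spheroids with HUVEC endothelial cells and human MSCs as stroma. Targeted agents were tested alone and with KRAS pathway inhibitors. Doses started at or near clinical Cmax, or 10 microM, descending half-log.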

[1] = second compound 0.1 µM, first compound 0.01 µM
[2] = second compound 0.1 µM, first compound 0.0316 µM
[3] = second compound 0.1 µM, first compound 0.1 µM
[4] = second compound 0.1 µM, first compound 0.316 µM
[5] = second compound 0.1 µM, first compound 1 µM
[6] = second compound 0.1 µM, first compound 3.16 µM
[7] = second compound 0.316 µM, first compound 0.01 µM
[8] = second compound 0.316 µM, first compound 0.0316 µM
[9] = second compound 0.316 µM, first compound 0.1 µM
[10] = second compound 0.316 µM, first compound 0.316 µM
[11] = second compound 0.316 µM, first compound 1 µM
[12] = second compound 0.316 µM, first compound 3.16 µM
[13] = second compound 1 µM, first compound 0.01 µM
[14] = second compound 1 µM, first compound 0.0316 µM
[15] = second compound 1 µM, first compound 0.1 µM
[16] = second compound 1 µM, first compound 0.316 µM
[17] = second compound 1 µM, first compound 1 µM
[18] = second compound 1 µM, first compound 3.16 µM
[19] = second compound 3.16 µM, first compound 0.01 µM
[20] = second compound 3.16 µM, first compound 0.0316 µM
[21] = second compound 3.16 µM, first compound 0.1 µM
[22] = second compound 3.16 µM, first compound 0.316 µM
[23] = second compound 3.16 µM, first compound 1 µM
[24] = second compound 3.16 µM, first compound 3.16 µM
[25] = second compound 10 µM, first compound 0.01 µM
[26] = second compound 10 µM, first compound 0.0316 µM
[27] = second compound 10 µM, first compound 0.1 µM
[28] = second compound 10 µM, first compound 0.316 µM
[29] = second compound 10 µM, first compound 1 µM
[30] = second compound 10 µM, first compound 3.16 µM
[31] = second compound 0.1 µM, first compound 10 µM
[32] = second compound 0.316 µM, first compound 10 µM
[33] = second compound 1 µM, first compound 10 µM
[34] = second compound 3.16 µM, first compound 10 µM
[35] = second compound 10 µM, first compound 10 µM
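Wherever viability, T/C is given: viability read after seven days of compound exposure; 100% = DMSO vehicle-treated spheroids so lower means less viable.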

Compound	IC50 (second compound 0.1 µM) [µM]	IC50 (second compound 0.316 µM) [µM]	IC50 (second compound 1 µM) [µM]	IC50 (second compound 3.16 µM) [µM]	IC50 (second compound 10 µM) [µM]	viability, T/C [2] [%]	viability, T/C [3] [%]	viability, T/C [4] [%]	viability, T/C [5] [%]	viability, T/C [6] [%]	viability, T/C [8] [%]	viability, T/C [9] [%]	viability, T/C [10] [%]	viability, T/C [11] [%]	viability, T/C [14] [%]	viability, T/C [15] [%]	viability, T/C [20] [%]	viability, T/C [21] [%]	viability, T/C [26] [%]	viability, T/C [27] [%]	further results
CC(=O)OC12COC1CC(O)C1(C)C(=O)C(O)C3=C(C)C(OC(=O)C(O)C(NC(=O)OC(C)(C)C)c4ccccc4)CC(O)(C(OC(=O)c4ccccc4)C21)C3(C)C (stereo not given) + COc1cc2nc(C)nc(NC(C)c3cc(N)cc(C(F)(F)F)c3)c2cc1OC1CCOC1	< 0.01	< 0.01	< 0.01	< 0.01	< 0.01	5.2	2.78	2.85	2.91	3.62	3.35	2.81	2.36	2.72	4.27	3.44	2.78	2.73	3.03	2.84	viability, T/C [1]: 4.45%; viability, T/C [7]: 4.29%; viability, T/C [12]: 2.69%; viability, T/C [13]: 3.08%; viability, T/C [16]: 3.47%; viability, T/C [17]: 3.46%; viability, T/C [18]: 2.96%; viability, T/C [19]: 3.01%; viability, T/C [22]: 2.51%; viability, T/C [23]: 2.54%; viability, T/C [24]: 2.73%; viability, T/C [25]: 3.2%; viability, T/C [28]: 3%; viability, T/C [29]: 2.42%; viability, T/C [30]: 2.82%
CN(C)C/C=C/C(=O)Nc1cc2c(Nc3ccc(F)c(Cl)c3)ncnc2cc1O[C@H]1CCOC1 + COc1cc2nc(C)nc(NC(C)c3cc(N)cc(C(F)(F)F)c3)c2cc1OC1CCOC1	> 0.1	> 0.1	> 0.1	> 0.1	> 0.1	108	96.8				99.2	89.2			113	105	84.4	79.3	81.4	61.4	viability, T/C (second compound 0.1 µM, first compound 0.000316 µM): 102%; viability, T/C (second compound 0.1 µM, first compound 0.001 µM): 107%; viability, T/C (second compound 0.1 µM, first compound 0.00316 µM): 112%; viability, T/C [1]: 110%; viability, T/C (second compound 0.316 µM, first compound 0.000316 µM): 94.3%; viability, T/C (second compound 0.316 µM, first compound 0.001 µM): 105%; viability, T/C (second compound 0.316 µM, first compound 0.00316 µM): 106%; viability, T/C [7]: 115%; viability, T/C (second compound 1 µM, first compound 0.000316 µM): 96.7%; viability, T/C (second compound 1 µM, first compound 0.001 µM): 93.8%; viability, T/C (second compound 1 µM, first compound 0.00316 µM): 91%; viability, T/C [13]: 105%; viability, T/C (second compound 3.16 µM, first compound 0.000316 µM): 93.4%; viability, T/C (second compound 3.16 µM, first compound 0.001 µM): 97.9%; viability, T/C (second compound 3.16 µM, first compound 0.00316 µM): 97.4%; viability, T/C [19]: 100%; viability, T/C (second compound 10 µM, first compound 0.000316 µM): 109%; viability, T/C (second compound 10 µM, first compound 0.001 µM): 105%; viability, T/C (second compound 10 µM, first compound 0.00316 µM): 114%; viability, T/C [25]: 91.2%
COC(=O)c1ccc2c(C(=Nc3ccc(N(C)C(=O)CN4CCN(C)CC4)cc3)c3ccccc3)c(O)[nH]c2c1 + COc1cc2nc(C)nc(NC(C)c3cc(N)cc(C(F)(F)F)c3)c2cc1OC1CCOC1	2.19	2.21	1.97	1.45	0.463	99	108	106	119	22.8	87.2	102	100	104	95.6	98.6	96.6	94	74.5	81.5	viability, T/C [31]: 13.4%; viability, T/C [12]: 28.3%; viability, T/C [32]: 10.9%; viability, T/C [16]: 106%; viability, T/C [17]: 115%; viability, T/C [18]: 12.7%; viability, T/C [33]: 8.29%; viability, T/C [22]: 114%; viability, T/C [23]: 72%; viability, T/C [24]: 5.65%; viability, T/C [34]: 0.14%; viability, T/C [28]: 62.8%; viability, T/C [29]: 22.1%; viability, T/C [30]: 0.18%; viability, T/C [35]: 0.19%
O=C(c1cc(Cc2n[nH]c(=O)c3ccccc23)ccc1F)N1CCN(C(=O)C2CC2)CC1 + COc1cc2nc(C)nc(NC(C)c3cc(N)cc(C(F)(F)F)c3)c2cc1OC1CCOC1	8.25	5.9	8.78	4.49	0.872	107	105	114	116	99.1	105	102	107	116	111	104	109	98.3	102	101	viability, T/C [31]: 40.1%; viability, T/C [12]: 67.9%; viability, T/C [32]: 34.8%; viability, T/C [16]: 107%; viability, T/C [17]: 122%; viability, T/C [18]: 88.2%; viability, T/C [33]: 45.1%; viability, T/C [22]: 109%; viability, T/C [23]: 110%; viability, T/C [24]: 61%; viability, T/C [34]: 25.1%; viability, T/C [28]: 81.3%; viability, T/C [29]: 48.4%; viability, T/C [30]: 11.5%; viability, T/C [35]: 10.1%
